From patent US5569665A, “Peptidyl derivatives and their use as metalloproteinases inhibitors” (Celltech Limited, priority 1992, dated 1996)
Counter-ions that a name gives are not always drawn.

Assays:
Type in all cases: biochemical
Stromelysin-1 = Stromelysin-1 (Homo sapiens, UniProt P08254); experiment: Fluorimetric enzyme inhibition assay with peptide substrate (Example A), stromelysin-1; details: Ki (app) assumed to approximate true Ki; substrate approx. 20 μm, pH 7.5, overnight
Method: (§1) All enzyme assays to determine Ki values were performed using the peptide substrate Dnp-Pro-Leu-Gly-Trp-Ala-D-Arg-NH2. (M. Sharon Stock and Rober D. Gray, JBC 264, 4277-81, 1989). The enzymes cleave at the Gly-Leu bond which can be followed fluorimetrically by measuring the increase in Trp fluorescence emission associated with the removal of the quenching dinitrophenol (Dnp) group.
(§2) Essentially, enzyme (e.g. gelatinase, stromelysin, coilagenase) at 0.08-2 nM; a range of inhibitor concentrations (0.1-50×Ki) and substrate (approx. 20 μm) are incubated overnight in 0.1M Tris/HCl buffer, pH 7.5, containing 0.1M NaCl, 10 mM CaCl2 and 0.05%. Brij 35 at either room temperature or 37° C. depending on the enzyme. The reaction is stopped by adjusting the pH to 4 using 0.1M sodium acetate buffer and the fluorescence read at an excitation wavelength of 280nm and emission wavelength of 346nm.
(§3) Ki values can be established using the equation for tight-binding inhibition: [formula] where Vo is the initial rate of reaction in the absence of inhibitor, Vi is the initial rate in the presence of inhibitor, [E] is the total enzyme concentration and [I] the total inhibitor concentration in the reaction mixture.
(§4) For stromelysin and collagenase, Ki (app) was assumed to approximate to the true Ki as [S]<<Km for the substrate hydrolysis. For gelatinase the Ki was determined by performing the analyses at several substrate concentrations. A plot of Ki (app) vs. [S] then gave the true Ki as the value of the y-axis intercept.

Gelatinase -72 KD = biological target: T1, Gelatinase -72 KD (Homo sapiens, UniProt P08253); experiment: Fluorimetric enzyme inhibition assay with peptide substrate (Example A), gelatinase; details: true Ki from plot of Ki (app) vs. [S], y-axis intercept; pH 7.5, overnight
T1 sequence (P08253 110-660): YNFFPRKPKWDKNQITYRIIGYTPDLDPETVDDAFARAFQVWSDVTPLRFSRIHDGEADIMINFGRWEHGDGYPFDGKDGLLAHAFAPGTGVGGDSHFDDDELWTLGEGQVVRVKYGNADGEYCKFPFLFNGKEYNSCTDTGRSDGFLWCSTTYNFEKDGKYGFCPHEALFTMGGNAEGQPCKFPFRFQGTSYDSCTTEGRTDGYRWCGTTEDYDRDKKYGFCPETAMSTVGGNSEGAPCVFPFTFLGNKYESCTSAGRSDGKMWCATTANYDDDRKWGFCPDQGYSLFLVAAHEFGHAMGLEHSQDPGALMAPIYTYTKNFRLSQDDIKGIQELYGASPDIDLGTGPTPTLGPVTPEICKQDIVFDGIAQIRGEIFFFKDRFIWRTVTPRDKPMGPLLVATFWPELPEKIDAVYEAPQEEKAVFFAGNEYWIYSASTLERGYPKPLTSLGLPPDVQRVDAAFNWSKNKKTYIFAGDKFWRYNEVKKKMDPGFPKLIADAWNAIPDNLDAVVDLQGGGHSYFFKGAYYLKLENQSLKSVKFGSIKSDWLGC
Method: as §1, §2, §3, §4

Collagenase = experiment: Fluorimetric enzyme inhibition assay with peptide substrate (Example A), collagenase; details: Ki (app) assumed to approximate true Ki; substrate approx. 20 μm, pH 7.5, overnight
Method: as §1, §2, §3, §4

Stromelysin-1, sequence (P08254 100-477, species assumed): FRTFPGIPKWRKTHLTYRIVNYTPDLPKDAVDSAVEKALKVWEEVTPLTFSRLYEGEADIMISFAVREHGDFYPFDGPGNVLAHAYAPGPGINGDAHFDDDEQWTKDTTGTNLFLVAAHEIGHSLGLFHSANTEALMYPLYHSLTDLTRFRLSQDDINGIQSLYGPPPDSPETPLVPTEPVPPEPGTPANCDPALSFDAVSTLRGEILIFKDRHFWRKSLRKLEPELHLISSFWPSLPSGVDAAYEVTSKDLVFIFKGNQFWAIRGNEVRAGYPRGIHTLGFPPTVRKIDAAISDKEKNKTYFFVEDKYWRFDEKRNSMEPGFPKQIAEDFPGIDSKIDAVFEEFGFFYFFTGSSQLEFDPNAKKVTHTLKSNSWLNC

Row | SMILES | Ki (Stromelysin-1) | Ki (Gelatinase -72 KD) | Ki (Collagenase)
1 | O=C(O)C[C@@H](CCOc1ccccc1)C(=O)N[C@@H](CC1CCCCC1)C(=O)NCCc1ccccc1 [Example 2] | 1510 nM | 22.2 nM | 48800 nM
2 | O=C(C[C@@H](CCOc1ccccc1)C(=O)N[C@@H](CC1CCCCC1)C(=O)NCCc1ccccc1)NO [Example 3, 4-(N-Hydroxyamino)-2-(R)-(3-(2-phenoxyethyl)succinyl)-L-β-cyclohexylalanine-N-(2-phenylethyl)amide] | 29.7 nM | 0.273 nM | 478 nM
3 | O=C(C[C@@H](CCCc1ccncc1)C(=O)N[C@@H](CC1CCCCC1)C(=O)NCCc1ccccc1)NO [Example 5, {4-(N-hydroxyamino)-2(R)-(3-(4-pyridinium)propyl)succinyl}-L-β-cyclohexylalanine-N-(2-phenylethyl)amide trifluoroacetate] | 12.6 nM | 0.035 nM | 186 nM
4 | C[n+]1ccc(CCC[C@H](CC(=O)NO)C(=O)N[C@@H](CC2CCCCC2)C(=O)NCCc2ccccc2)cc1 [Example 6, {4-(N-hydroxyamino)-2-(R)-3-(N-methyl-4-pyridinium)propylsuccinyl}-L-β-cyclohexylalanine-N-(2-phenylethyl)amide iodide] | 681 nM | 8.42 nM | 22000 nM
5 | NS(=O)(=O)c1ccc(CCNC(=O)[C@H](CC2CCCCC2)NC(=O)[C@H](CCCc2ccncc2)CC(=O)NO)cc1 [Example 8, {4-(N-Hydroxyamino)-2-(R)-(3-(4-pyridinium)propyl)succinyl}-L-β-cyclohexylalanine-N-(2-(p-sulphonamidophenyl)ethyl)amide trifluoroacetate] | 11.8 nM | 0.059 nM | 215 nM
